Laboratory results: patent US10920236B2, “Use of micropeptides in order to stimulate mycorrhizal symbiosis” (UNIVERSITE TOULOUSE III—PAUL SABATIER, priority 2014, dated 2021)

Key:
[1] = test system: mycorrhization of Oryza sativa by Rhizophagus irregularis; assay: Mycorrhization of Oryza sativa (rice); assay type: in vivo; conditions: 0.1 μM, 5 weeks post inoculation; vs solvent control; FIGS. 13, 14, 15, 16 and 19
Protocol: The effects of the osmiPEP171i on mycorrhization of the rice were analyzed by treating the plants with osmiPEP171i in parallel with the mycorrhization.
The seeds are sterilized for 1 min with 70% ethanol, then for 30 min with sodium hypochlorite solution before rinsing.
Culturing of a previously germinated seed of rice is carried out in a pot containing vermiculite with cotton fibre at the bottom. 500 spores of Rhizophagus irregularis are added per pot. The spores in mixtures in a substrate are arranged in a layer on the vermiculite at approximately two thirds of the height of the pot. The remainder of the pot is then filled with vermiculite and a hole is made for placing a germinated rice seed therein. The substrate is moistened. The pots are then placed in a growing room at 25° C.
Treatments of the Plants with miPEP: • OsmiPEP171i: 0.1 μM (final) • Control: equivalent of 50% ACN solution
The treatments are carried out on Monday and Friday by mixing the solution of miPEP or control in 60 ml of nutrient solution (1/2 Hoagland with 25 μM Pi and Sequestren) and on Wednesday the solution of miPEP or control in 60 ml of water. Each plant is watered with 10 ml per pot. […]

[2] = test system: mycorrhization of Solanum lycopersicum by Rhizophagus irregularis; assay: Mycorrhization of Solanum lycopersicum (tomato); assay type: in vivo; conditions: 0.1 μM slmiPEP171e, watering every two days, 12 weeks post inoculation; vs solvent; FIGS. 8 and 17
Protocol: The effects of slmiPEP171e on mycorrhization of the tomato were analyzed by treating the plants with slmiPEP171e in parallel with the mycorrhization.
The seeds are sterilized for 2 minutes in sodium hypochlorite solution diluted ¼, then rinsed at least 8 times with sterile water.
The seeds are placed in a Petri dish containing water+1% agar. The dishes are placed at 4° C. overnight, then they are placed at ambient temperature for 4 days in order to germinate the seeds.
The germinated seeds are transferred to an Oil-Dry® substrate containing spores of Rhizophagus irregularis at the concentration of 400 spores/L. After two days of adaptation under mini-greenhouse the seedlings are transferred to a growing room or greenhouse. The plants are watered regularly with a solution of Long Ashton+nitrogen (Lauressergues et al., Plant J. 72(3):512-22, 2012).
The treatment is carried out by watering the plants with 12.5 ml of water+the concentrated solution of miPEP or the equivalent of solvent solution (50% acetonitrile) for the control treatment. The treatments are carried out every two days.
The roots are cleared with 1% KOH 7 minutes at 90° C., then stained 10 minutes in an ink solution (5% Sheaffer ink; 5% acetic acid) at 90° C.

[3] = test system: lateral roots of M. truncatula; assay: Number of lateral roots in M. truncatula; assay type: in vivo, Medicago truncatula
Protocol: (§1) The surface of the seeds of M. truncatula was sterilized and they were placed to germinate on agar plates for 5 days at 4° C. in the dark. The young shoots were then grown on 12 cm square plates filled with Fahraeus medium without nitrogen and containing 7.5 μM phosphate (Lauresergues et al., Plant J., 72(3):512-22, 2012). The lateral roots were counted every day. In pots, the plants were watered every two days with modified Long Ashton medium containing little phosphorus (Balzergue et al., 2011 Journal of experimental botany, 62:1049-1060).
(§2) The peptides were synthesized by Eurogentec or Smartox-Biotech. The miPEP171b was placed in suspension in a water 40%/acetonitrile 50%/acetic acid 10% (v/v/v) solution.
The mean values of the relative expression of the genes or of the production of lateral roots were analyzed by using the Student test or the Kruskal-Wallis test. The error bars represent the standard error of the mean (SEM). The asterisks indicate a significant difference (p<0.05).
The DNA fragments of interest were amplified with Pfu polymerase (Promega). […]
(§3) The composite plants having roots transformed with Agrobacterium Rhizogenes were obtained by the method described in Boisson-Dernier et al. (Mol Plant-Microbe Interact, 18:1269-1276, 2005). The transformed roots were verified and selected by observations of DsRED with a binocular fluorescence magnifier. […]

miR171b = assay: Accumulation of miR171b in M. truncatula roots (qRT-PCR); assay type: in vivo, Medicago truncatula
Protocol: as §1, §2
The RNA was extracted by using the reagent Tri-Reagent (MRC) according to the manufacturer's instructions, with the exception of precipitation of the RNA which was carried out with 3 volumes of ethanol. […]
(§4) The mean values of the relative expression of the genes or of the production of lateral roots were analyzed by using the Student test or the Kruskal-Wallis test. […]
as §3

[4] = test system: colonization of M. truncatula by the fungus Rhizophagus irregularis; assay: Mycorrhization of M. truncatula by Rhizophagus irregularis; assay type: in vivo, Medicago truncatula
Protocol: Medicago truncatula plants were treated for 5 weeks, by watering every 2 days, with low concentrations (0.1 μM) of a synthetic peptide the sequence of which is identical to that of miPEP171b, and the percentage colonization of the plant was measured.
Sterile spores of Rhizophagus irregularis (previously called Glomus intraradices) DAOM197198 were purchased from Agronutrition (Carbonne, France).
Seeds of M. truncatula (Gaertn ‘Jemalong’ genotype A17) were sterilized on the surface and placed to germinate on agar plates in the dark for 5 days at 4° C. The plants were then grown on an Oil-Dri US-special substrate (Damolin, Denmark) for 5 to 12 weeks in a growing room and watered every 2 days with modified Long Ashton medium containing a low concentration of phosphate (Balzergue et al., J Exp Bot, 62(3):1049-60, 2011).
For the inoculation of the plants with R. irregularis, 450 spores were used per plant.
After washing in KOH 10% (weight/volume) and rinsing in sterile water, the mycorrhized roots were treated for 30 minutes with wheat germ agglutinin fluorescein conjugate (Invitrogen) which fixes the fungal chitin, then washed 3 times in a PBS buffer. The roots were then observed with an inverted optical microscope or a confocal microscope (Leica, France).
Alternatively, the roots were labelled with black Schaeffer ink according to the protocol described in Vierheilig et al., Appl Environ Microbiol, 64:5004-5007, 1998.
The percentage mycorrhization was measured using grids according to the protocol described in Giovannetti and Mosse, New Phytol, 84:489-500, 1980.
The accurate phenotyping of the mycorrhization was also carried out according to the method of Trouvelot et al., Physiological and Genetical Aspects of Mycorrhizae, pp 217-221, 1986. The frequency of mycorrhization (F) in the root system and the abundance of the arbuscules (A) (as a percentage) were calculated in colonized root sections using the software Mycocalc.
The size of the arbuscules was measured using the software ImageJ. […]

[5] = test system: HAM1 (Accession No. MtGI9-TC114268); assay: Expression of the HAM1 gene in M. truncatula roots (qRT-PCR); assay type: in vivo, Medicago truncatula
Protocol: as §1, §2
(§5) The total RNA of the roots of M. truncatula was extracted by using the RNeasy Plant Mini Kit extraction kit (Qiagen). […]
as §4, §3

[6] = test system: HAM2 (Accession No. MtGI9-TC120850); assay: Expression of the HAM2 gene in M. truncatula roots (qRT-PCR); assay type: in vivo, Medicago truncatula
Protocol: as §1, §2, §5, §4, §3

[7] = test system: mycorrhization of Lotus japonicus by Rhizophagus irregularis; assay: Mycorrhization of Lotus japonicus (birdsfoot trefoil); assay type: in vivo; conditions: 0.1 μM, 5 weeks post inoculation; vs control; FIGS. 9, 10, 11, 12 and 18
Protocol: The effects of the LjmiPEP171b on mycorrhization of the birdsfoot trefoil were analyzed by treating the plants with LjmiPEP171b in parallel with the mycorrhization.
The seeds are sterilized in sodium hypochlorite solution for 20 min then rinsed several times in water.
Culturing of the birdsfoot trefoil plants is carried out in a pot containing vermiculite with cotton fibre at the bottom. 5,000 spores of Rhizophagus irregularis are added per pot. The spores in mixtures in a substrate are arranged in a layer on the vermiculite to approximately two thirds of the height of the pot. The remainder of the pot is then filled with vermiculite and 10 seeds of pre-germinated birdsfoot trefoil are placed in the moist substrate. 3 pots are prepared for each treatment. The pots are then places in a growing room at 25° C.
Treatments of the Plants with miPEP: • LjmiPEP171e: 0.1 μM (final) • Control: water.
The treatments are carried out on Monday and Friday by mixing the solution of miPEP or control with the nutrient solution (suitable B&D medium) and on Wednesday the solution of miPEP or control in water. Each pot is watered with 10 ml except on Friday 30 ml (without changing the quantity of miPEP), in order to last over the weekend. […]

[8] = plant in which miPEP171b is overexpressed vs control plant, FIG. 2A
[9] = synthetic peptide applied to roots, medium containing miPEP171b at 0.01 μM, 0.1 μM or 1 μM, vs control plant, FIG. 3A

MIARYIEREMTSKLGRGRKRAARLVAVFLLG (listed as Oryza sativa) [osmiPEP171i]
mycorrhization of rice [1]: promotes

MKLGNIEGTYFIICLGRYI (listed as Solanum lycopersicum) [slmiPEP171e]
mycorrhization of the tomato [2]: promotes

MLLHRLSKFCKIERDIVYIS (listed as Medicago truncatula) [miPEP171b]
average number of lateral roots ([3]; medium containing miPEP171b at 0.1 μM for 5 days and 1 time per day, vs control plant, FIG. 3B): reduction | average number of lateral roots ([3]; plant in which miPEP171b is overexpressed vs control plant, FIG. 2B): reduction | accumulation of miR171b (relative expression) (miR171b; [8]): increase | accumulation of miR171b (relative expression) (miR171b; [9]): increase | mycorrhization rate ([4]; 0.1 μM miPEP171b, 5 weeks post inoculation, vs control plants, FIG. 7): greater | mycorrhization (percentage colonization of the plant) ([4]; 0.1 μM synthetic peptide, watering every 2 days for 5 weeks, vs solvent control, FIG. 5): significantly increased | size (surface area) of the arbuscules ([4]; roots treated with 0.1 μM miPEP171b vs control roots, FIG. 6): larger size | expression of the HAM1 gene (relative expression) [5, 8]: reduction | expression of the HAM1 gene (relative expression) [5, 9]: reduction | expression of the HAM2 gene (relative expression) [6, 8]: reduction | expression of the HAM2 gene (relative expression) [6, 9]: reduction

MYHRSKAKLCQTDGDDGGGSDM (listed as Lotus japonicus) [LjmiPEP171b]
mycorrhization of birdsfoot trefoil [7]: promotes
